Test results: article PMC10953043, “Fluorogenic Granzyme A Substrates Enable Real‐Time Imaging of Adaptive Immune Cell Activity” (Angewandte Chemie (Weinheim an Der Bergstrasse, Germany), 2023)

Target: T1, human GzmA (hGzmA), active recombinant (Homo sapiens, UniProt P12544)
T1 construct: active recombinant enzyme (not the pro-form), dimeric
T1 sequence (P12544 29-262): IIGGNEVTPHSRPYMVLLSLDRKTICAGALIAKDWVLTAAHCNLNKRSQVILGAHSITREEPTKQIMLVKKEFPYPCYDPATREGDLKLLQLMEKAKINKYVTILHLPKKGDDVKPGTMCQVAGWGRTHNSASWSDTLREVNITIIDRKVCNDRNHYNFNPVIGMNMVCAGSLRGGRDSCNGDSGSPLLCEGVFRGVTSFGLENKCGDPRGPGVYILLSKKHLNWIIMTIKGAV
Assay: fluorogenic assay with compound […] as substrate
Type: biochemical
Settings: 100 μM inhibitor, 20 μM compound 9, 20 nM hGzmA, Tris buffer pH 8; covalent

- % decrease of the fluorescence signal: > 90%
Structure (SMILES): O=c1oc(Cl)c(Cl)c2ccccc12 [3,4‐dichloroisocoumarin]
